Data: patent US8911342B2, “Apparatus and method for pulsed electrical field treatment” (Re5 ApS, priority 2009, dated 2014)

Tested on: Human neural cells line from sympatic ganglia - SHSY-5Y
Conditions: sertraline 10 μM 24 hours, then PEMF 2 hrs at 50 or 55 Hz, vs control cells, PCR array

SMILES: CN[C@H]1CC[C@@H](c2ccc(Cl)c(Cl)c2)c2ccccc21 [sertraline, (1S,4S)-4-(3,4-dichlorophenyl)-N-methyl-1,2,3,4-tetrahydronaphthalen-1-amine]
- Fold increase in mRNA, Bone morphonogenic Protein 1 (BMP1): 4 fold
- Fold increase in mRNA, Bone morphonogenic Protein 5 (BMP5): 8 fold
- Fold increase in mRNA, IL-17B: 8 fold
- Fold increase in mRNA, IL-18: 4 fold
- Fold increase in mRNA, IL-20: 4 fold
- Fold increase in mRNA, IL-21: 4 fold
- Fold increase in mRNA, Il-8: 8 fold
- Fold increase in mRNA, Interleukin 10 (IL-10): 1 fold
- Fold increase in mRNA, TNF SF10: 8 fold
- Fold increase in mRNA, TNF SF11: 2 fold
- Fold increase in mRNA, TNFR SF11: 8 fold
- Fold increase in mRNA, Transforming growth factor beta 3 (TGFB3): 5 fold
- Fold increase in mRNA, Tumor necrosis factor (TNF): 8 fold
